Laboratory results as given in paper PMC4063695, “Design of Embedded-Hybrid Antimicrobial Peptides with Enhanced Cell Selectivity and Anti-Biofilm Activity” (PLoS ONE, 2014).
No end group written: not given here.

Key:
[1] = tested on: Gram-negative and Gram-positive strains; test: MIC over all tested strains (range, geometric mean); type: cell-based; design: GM (geometric mean of MIC values from all microbial strains): unit not given here; conditions: all strains of Table 2
Description: (§1) E. coli ATCC25922, P. aeruginosa ATCC27853, S. aureus ATCC29213, S. epidermidis ATCC12228, S. faecalis ATCC29212 and B. subtilis CMCC63501 were obtained from the College of Veterinary Medicine, Northeast Agricultural University (Harbin, China), E. coli K88, E. coli CVCC1515 and P. aeruginosa ATCC15442 were bestowed by Prof. J.H. Wang (Gene Engineering Laboratory, Feed Research Institute, Chinese Academy of Agricultural Sciences Beijing, China) and E. coli UB1005 was kindly provided by Prof. Q.S. Qi (State Key Laboratory of Microbial Technology, Shandong University, China). […] Briefly, 50 µl of approximate 0.5–1 × 10^6 colony forming units (CFU)/ml of cells were diluted in Mueller-Hinton broth and distributed to 96-well plate, 50 µl of twofold peptides were added and the plates was incubated at 37°C for 18–24 h. The MIC values were calculated as the lowest peptide concentration that prevented visible turbidity and negative control of the pure broth without microbes. The tests were performed at least three times in duplicate.

[2] = tested on: human red blood cells (hRBC); test: Hemolytic activity; type: cell-based; conditions: minimum concentration that caused 5% hemolysis of hRBC (footnote); 1% hRBC in PBS pH 7.4, 1 h, 37°C, OD 492 nm
Protocol: The amount of released hemoglobin by the lysis of erythrocytes was measured for hemolytic activity of peptides. Human erythrocytes were obtained from a healthy donor with written informed consent. The experimental protocol was reviewed and approved by the ethics committee of the Northeast Agricultural University Hospital. The measurement was based on a previously described method. The fresh hRBCs were washed three times by centrifugation (1000 g, 5 min, 4°C) in PBS (pH 7.4), and then resuspended in PBS to obtain the erythrocyte with a dilution of approximately 1% (v/v). Then, 50 µL of hRBCs solution was incubated with 50 µL of different concentrations of the peptides dissolved in PBS for 1 h at 37°C, before centrifugation (1000 g, 5 min, 4°C) again. The absorbance of the supernatants was measured at optical density (OD) 492 nm. […] The control samples for 0% and 100% hemolysis consisted of hRBCs in PBS (Ablank) only and in 0.1% Triton X-100 (Atriton), respectively. The percentage of hemolysis was calculated according to the following equation: [drawing 3]

E. coli ATCC25922 = test: MIC in the presence of physiological salts; type: cell-based, Escherichia coli; design: unit not given here
Description: as §1
(§2) The stability of peptides was tested in the MIC assay in different environments, including salt sensitivity, human serum, thermal stability and susceptibility to enzymes. For salt sensitivity, 0.5–1 × 10^6 CFU/ml of P. aeruginosa ATCC27853 and E. coli ATCC25922 were treated with peptides, while different salts were added to MHB, and the final concentrations of physiological salts were as follows: 150 mM NaCl, 4.5 mM KCl, 1 mM MgCl2, 6 µM NH4Cl, 8 µM ZnCl2, 4 µM FeCl3 and […] [33]. Except salt sensitivity, only E. coli ATCC25922 was treated with peptides. […] For testing peptide sensitivity to the proteolytic enzymes, the peptides were incubated in advance at 37°C for 1 h with a 1 mg/ml final concentration of the proteolytic enzymes (trypsin, pepsin, papain and proteinase K). For testing thermal stability, incubation occurred at 100°C for 1 h. After these treatments, the procedures were same as MIC assay described above.

P. aeruginosa ATCC27853 = test: MIC in the presence of physiological salts; type: cell-based, Pseudomonas aeruginosa; design: unit not given here
Description: as §1, §2

[3] = Circular dichroism, secondary structure; type: physicochemical; conditions: 150 µM peptide, 25°C, from [θ]222
Protocol: The CD spectra were measured with a CD spectropolarimeter (Jasco, J-820, Tokyo, Japan) at 25°C, using a 0.1 cm path length rectangular quartz cell. The spectra were recorded at between 190 and 250 nm at 10 nm/min scanning speed. At least three scans were conducted for each peptide sample.
The acquired CD spectra were converted to the mean residue ellipticity through the following equation: [drawing 1]
where θM is the mean residue ellipticity [deg.cm2.dmol-1], θobs is the observed ellipticity corrected for the buffer at a given wavelength [mdeg], c is the peptide concentration [mM], l is the path length [mm], and n is the number of amino acids.
The percentage of α-helical structure was calculated as followings: [drawing 2]
where [θ]222 is the experimentally observed mean residue ellipticity at 222 nm, and values for [θ]^0 and [θ]^100 which correspond to 0 and 100% a-helix content at 222 nm, are estimated to be −2000 and −32000, respectively, [29].

E. coli UB1005 = test: Cytoplasmic membrane electrical potential, diSC3-5; type: cell-based, Escherichia coli; conditions: diSC3-5 release over 600 s
Protocol: Peptides could alter the electrical potential of cytoplasmic membrane, and this potential that was measured by using E. coli UB1005 cells and diSC3-5 (Sigma), a membrane potential-sensitive fluorescent dye, as previously described, [35]. E. coli UB1005 was cultured to logarithmic phase in MHB, harvested by centrifugation, washed twice with buffer (5 mM of HEPES and 20 mM of glucose, pH 7.4) and resuspended to an OD600 of 0.05 in the identical buffer. The dye (diSC3-5) was added to above buffer at a final concentration of 0.4 µM. And the bacteria were incubated to take up the dye for 90 min. KCl was added to a final concentration of 0.1 M for equilibrating K^+ concentration between extracellular and intracellular environment, and then the bacteria were incubated at room temperature for 10 min. The cell suspension (2 ml) was placed in a 1-cm cuvette, and the peptides were added to different concentrations. The fluorescence intensity changes were monitored by using an F-4500 fluorescence spectrophotometer (Hitachi, Japan) with an excitation wavelength of 622 nm and an emission wavelength of 670 nm.

[4] = all kinds of salts in physiological concentrations

RFRRLFRIRVRVLKKI-NH2 [R-FV-I16]
GM (geometric mean of MIC values from all microbial strains) [1]: 2 | MHC [2]: 128 µM | MIC, FeCl3 (E. coli ATCC25922; 4 µM FeCl3 in MHB): 1 | MIC, NH4Cl (E. coli ATCC25922; 6 µM NH4Cl in MHB): 1 | MIC, ZnCl2 (E. coli ATCC25922; 8 µM ZnCl2 in MHB): 1 | MIC, MgCl2 (E. coli ATCC25922; 1 mM MgCl2 in MHB): 4 | MIC, KCl (E. coli ATCC25922; 4.5 mM KCl in MHB): 1 | MIC, NaCl (E. coli ATCC25922; 150 mM NaCl in MHB): 4 | MIC, Mix (E. coli ATCC25922; [4]): 8 | MIC, CaCl2 (E. coli ATCC25922; in MHB): 1 | MIC, Control (E. coli ATCC25922; no added salts, unit not given): 1 | MIC, CaCl2 (P. aeruginosa ATCC27853; 2.5 µM CaCl2 in MHB): 4 | MIC, FeCl3 (P. aeruginosa ATCC27853; 4 µM FeCl3 in MHB): 4 | MIC, NH4Cl (P. aeruginosa ATCC27853; 6 µM NH4Cl in MHB): 4 | MIC, ZnCl2 (P. aeruginosa ATCC27853; 8 µM ZnCl2 in MHB): 4 | MIC, MgCl2 (P. aeruginosa ATCC27853; 1 mM MgCl2 in MHB): 8 | MIC, KCl (P. aeruginosa ATCC27853; 4.5 mM KCl in MHB): 4 | MIC, NaCl (P. aeruginosa ATCC27853; 150 mM NaCl in MHB): 4 | MIC, Mix (P. aeruginosa ATCC27853; [4]): 16 | MIC, Control (P. aeruginosa ATCC27853; no added salts, unit not given): 4 | α-helical content ([3]; 30 mM SDS): 36% | α-helical content ([3]; 50% TFE): 69% | cytoplasmic membrane depolarization (in words) (E. coli UB1005): able to permeabilize the bacterial cell membrane even at a lower concentration than their MICs
